What was measured:
Type in all cases: physicochemical
[1] = solubility in solvents (crystallisation antisolvents); details: in a wide range of solvents usable as antisolvents (water, tetrahydrofuran, lower alcohols, acetone)
[2] = hygroscopicity
[3] = physical and chemical stability on storage; details: general statement

solubility [1]: limited solubility
hygroscopicity [2]: substantially non-hygroscopic
Substance: N-[2-[4-[(3-phenyl-4-methoxyphenyl)amino]phenyl]ethyl]-(R)-2-hydroxy-2-(8-hydroxy-1,2-dihydro-2-oxoquinolin-5-yl)ethylammonium 2,5-dichlorobenzenesulfonate
physical and chemical stability on storage [3]: good physical and chemical stability on storage

From patent US20090227547A1, “Novel salt form of a Beta2-adrenergic agonist quinolin-2-one derivative” (Glaxo Group Limited, priority 2005, published 2009)
